Laboratory results taken from patent US7368443B2, “2,6-disubstituted piperidines and piperazine compounds” (University of Kentucky Research Foundation, priority 1999, dated 2008).
Read-outs that look alike come from different tables or passages of the source.

Experiments:
α6β2* nicotinic receptor = α6β2* nicotinic receptor (Rattus norvegicus, UniProt P12390+P43143); test: Nicotine-evoked [3H]DA overflow from superfused striatal slices; type: cell-based
α3β4* nicotinic receptor = α3β4* nicotinic receptor (Rattus norvegicus, UniProt P04757+P12392); test: Nicotine-evoked [3H]NE overflow from superfused hippocampal slices; type: cell-based; conditions: inhibition of 10 μM S(−)-nicotine
Chain of α3β4* nicotinic receptor (P04757 26-499): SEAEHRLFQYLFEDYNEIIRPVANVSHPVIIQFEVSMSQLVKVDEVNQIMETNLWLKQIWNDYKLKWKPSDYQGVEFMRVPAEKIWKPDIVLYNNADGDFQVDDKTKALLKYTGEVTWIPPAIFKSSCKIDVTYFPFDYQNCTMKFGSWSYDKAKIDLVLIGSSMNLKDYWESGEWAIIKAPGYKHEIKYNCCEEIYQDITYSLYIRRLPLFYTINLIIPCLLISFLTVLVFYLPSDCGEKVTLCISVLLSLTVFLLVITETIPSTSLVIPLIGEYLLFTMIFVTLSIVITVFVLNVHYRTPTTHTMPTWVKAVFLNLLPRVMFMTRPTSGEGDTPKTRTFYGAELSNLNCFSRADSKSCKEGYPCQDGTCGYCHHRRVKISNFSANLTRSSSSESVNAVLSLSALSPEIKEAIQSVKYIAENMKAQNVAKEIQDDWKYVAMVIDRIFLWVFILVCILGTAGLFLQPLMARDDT
Chain of α3β4* nicotinic receptor (P12392 21-495): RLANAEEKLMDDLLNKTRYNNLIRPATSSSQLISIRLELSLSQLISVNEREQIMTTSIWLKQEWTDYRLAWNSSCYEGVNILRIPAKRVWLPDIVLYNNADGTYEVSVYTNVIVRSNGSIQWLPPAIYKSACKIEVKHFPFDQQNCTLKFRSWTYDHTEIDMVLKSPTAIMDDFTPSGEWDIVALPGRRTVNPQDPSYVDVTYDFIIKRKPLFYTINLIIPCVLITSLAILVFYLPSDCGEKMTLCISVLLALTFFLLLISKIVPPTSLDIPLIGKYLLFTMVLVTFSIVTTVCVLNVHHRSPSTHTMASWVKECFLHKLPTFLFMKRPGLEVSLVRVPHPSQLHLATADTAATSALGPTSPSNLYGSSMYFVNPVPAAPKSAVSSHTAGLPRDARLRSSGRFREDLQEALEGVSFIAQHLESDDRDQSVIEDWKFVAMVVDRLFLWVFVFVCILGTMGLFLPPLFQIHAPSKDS

[1] = target: T1, dopamine transporter (DAT) (Rattus norvegicus, UniProt P23977); test: [3H]Dopamine uptake assay, striatal synaptosomes; type: biochemical
T1 construct: Striata were homogenized in 20 ml of ice-cold sucrose solution; from tissue; host or cells: striatal synaptosomes
T1 sequence (P23977 whole entry): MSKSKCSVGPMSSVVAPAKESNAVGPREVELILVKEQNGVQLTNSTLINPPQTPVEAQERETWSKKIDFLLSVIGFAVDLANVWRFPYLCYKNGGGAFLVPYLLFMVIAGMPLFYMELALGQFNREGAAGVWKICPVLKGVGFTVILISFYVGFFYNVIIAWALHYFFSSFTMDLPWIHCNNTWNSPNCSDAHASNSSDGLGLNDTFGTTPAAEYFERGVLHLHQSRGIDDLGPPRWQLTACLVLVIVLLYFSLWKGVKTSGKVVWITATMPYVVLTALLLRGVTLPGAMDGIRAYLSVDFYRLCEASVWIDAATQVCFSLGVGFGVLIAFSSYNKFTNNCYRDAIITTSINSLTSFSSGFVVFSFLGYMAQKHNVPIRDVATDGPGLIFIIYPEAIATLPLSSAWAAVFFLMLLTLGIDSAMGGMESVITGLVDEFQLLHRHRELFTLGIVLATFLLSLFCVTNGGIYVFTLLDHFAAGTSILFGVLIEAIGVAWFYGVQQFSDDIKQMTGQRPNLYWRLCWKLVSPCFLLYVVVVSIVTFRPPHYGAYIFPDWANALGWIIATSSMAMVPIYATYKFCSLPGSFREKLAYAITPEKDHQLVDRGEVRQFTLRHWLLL

VMAT2 [2] = target: T2, VMAT2 (Rattus norvegicus, UniProt Q01827); test: biochemical
T2 sequence (Q01827 whole entry): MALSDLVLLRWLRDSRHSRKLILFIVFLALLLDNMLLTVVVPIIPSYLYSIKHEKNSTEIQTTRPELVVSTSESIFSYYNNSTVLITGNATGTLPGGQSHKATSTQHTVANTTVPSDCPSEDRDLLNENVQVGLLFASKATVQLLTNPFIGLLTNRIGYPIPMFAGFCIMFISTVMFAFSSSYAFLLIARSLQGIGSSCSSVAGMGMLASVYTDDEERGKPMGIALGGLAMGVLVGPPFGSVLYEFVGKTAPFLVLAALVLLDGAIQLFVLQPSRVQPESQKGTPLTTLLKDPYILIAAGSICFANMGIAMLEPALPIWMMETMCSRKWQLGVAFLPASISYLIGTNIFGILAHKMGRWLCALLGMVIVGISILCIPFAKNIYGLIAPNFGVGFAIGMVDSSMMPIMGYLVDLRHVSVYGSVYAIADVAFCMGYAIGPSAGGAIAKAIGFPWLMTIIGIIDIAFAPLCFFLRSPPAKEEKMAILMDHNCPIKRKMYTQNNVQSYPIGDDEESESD

[3] = target: T3, serotonin transporter (SERT) (Rattus norvegicus, UniProt P31652); test: [3H]5-HT uptake assay, hippocampal synaptosomes; type: biochemical; conditions: for IC50: Table 4, earlier studies
T3 construct: Rat hippocampus was homogenized in 20 mL cold 0.32 M sucrose; from tissue; host or cells: rat hippocampal synaptosomes
T3 sequence (P31652 whole entry): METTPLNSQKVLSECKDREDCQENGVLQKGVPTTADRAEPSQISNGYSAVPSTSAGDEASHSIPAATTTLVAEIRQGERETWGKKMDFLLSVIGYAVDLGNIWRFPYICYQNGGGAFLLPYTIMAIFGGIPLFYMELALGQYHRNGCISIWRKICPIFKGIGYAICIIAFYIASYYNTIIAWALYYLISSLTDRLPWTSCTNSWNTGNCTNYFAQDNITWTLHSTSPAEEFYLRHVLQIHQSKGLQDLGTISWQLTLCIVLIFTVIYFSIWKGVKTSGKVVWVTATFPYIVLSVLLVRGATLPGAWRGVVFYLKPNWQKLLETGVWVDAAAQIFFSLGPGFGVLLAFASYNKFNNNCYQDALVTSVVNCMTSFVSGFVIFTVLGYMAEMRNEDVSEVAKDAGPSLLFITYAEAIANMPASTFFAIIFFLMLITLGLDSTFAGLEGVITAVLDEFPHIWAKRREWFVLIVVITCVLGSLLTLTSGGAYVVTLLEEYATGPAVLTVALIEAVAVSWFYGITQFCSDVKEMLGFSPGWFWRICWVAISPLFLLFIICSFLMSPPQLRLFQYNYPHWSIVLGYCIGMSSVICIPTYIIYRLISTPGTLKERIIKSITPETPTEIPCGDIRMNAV

α4β2* nicotinic receptor [4] = target: T4, α4β2* nicotinic receptor (Rattus norvegicus, UniProt P09483+P12390); test: High affinity [3H]nicotine binding assay; design: The pellet containing the striatal membranes was resuspended; from tissue; host or cells: rat striatal membranes
T4 sequence (P09483 31-630): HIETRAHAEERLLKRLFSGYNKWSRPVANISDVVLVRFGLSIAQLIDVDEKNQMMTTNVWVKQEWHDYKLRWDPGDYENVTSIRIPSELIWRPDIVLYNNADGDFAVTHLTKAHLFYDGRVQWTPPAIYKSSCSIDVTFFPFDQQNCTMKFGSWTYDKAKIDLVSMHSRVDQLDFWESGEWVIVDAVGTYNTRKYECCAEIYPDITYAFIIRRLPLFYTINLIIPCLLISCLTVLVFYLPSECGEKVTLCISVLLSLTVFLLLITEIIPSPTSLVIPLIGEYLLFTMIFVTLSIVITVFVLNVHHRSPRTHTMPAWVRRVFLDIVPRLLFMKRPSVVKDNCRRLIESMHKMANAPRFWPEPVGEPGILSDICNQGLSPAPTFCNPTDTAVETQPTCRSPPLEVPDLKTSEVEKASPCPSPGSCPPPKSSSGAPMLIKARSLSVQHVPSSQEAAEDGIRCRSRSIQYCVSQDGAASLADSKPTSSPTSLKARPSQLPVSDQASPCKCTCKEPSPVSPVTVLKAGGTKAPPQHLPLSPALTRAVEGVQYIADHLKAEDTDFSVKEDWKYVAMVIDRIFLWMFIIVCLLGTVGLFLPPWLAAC
T4 sequence (P12390 25-500): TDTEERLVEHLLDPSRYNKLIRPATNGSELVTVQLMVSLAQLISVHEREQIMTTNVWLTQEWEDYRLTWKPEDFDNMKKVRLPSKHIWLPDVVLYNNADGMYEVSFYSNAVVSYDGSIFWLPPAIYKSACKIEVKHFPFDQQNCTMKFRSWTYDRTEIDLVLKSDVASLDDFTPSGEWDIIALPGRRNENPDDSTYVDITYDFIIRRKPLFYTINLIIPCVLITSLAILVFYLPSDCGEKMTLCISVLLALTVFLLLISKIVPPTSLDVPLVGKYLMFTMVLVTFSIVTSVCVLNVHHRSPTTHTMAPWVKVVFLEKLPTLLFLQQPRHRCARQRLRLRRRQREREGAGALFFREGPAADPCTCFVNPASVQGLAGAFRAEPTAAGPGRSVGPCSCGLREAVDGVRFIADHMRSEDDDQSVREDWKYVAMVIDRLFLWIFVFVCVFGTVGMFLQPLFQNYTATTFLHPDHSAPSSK

[5] = tested on: methamphetamine-evoked endogenous DA release from striatal slices; test: Methamphetamine-evoked endogenous DA overflow from superfused striatal slices; type: cell-based; conditions: read-out: Inhibition of Methamphetamine Evoked DA Overflow IC50 (Mean)
α4β2* nicotinic receptor [6] = target: T4, α4β2* nicotinic receptor; test: Nicotine-evoked 86Rb+ efflux assay, thalamic synaptosomes; type: biochemical; design: from tissue; conditions: read-out: Inhibition of Nicotine-Evoked 86Rb+ Efflux (IC50) α4β2*
α7* nicotinic receptor = target: T5, α7* nicotinic receptor (Rattus norvegicus, UniProt Q05941); test: [3H]Methyllycaconitine ([3H]MLA) binding assay; conditions: Table 1; rat whole brain membranes; read-out: [3H]MLA Binding (Ki) α7*
T5 construct: Whole rat brain (minus cortex, striatum and cerebellum) was homogenized; from tissue; host or cells: rat whole brain membranes (minus cortex, striatum and cerebellum)
T5 sequence (Q05941 23-502): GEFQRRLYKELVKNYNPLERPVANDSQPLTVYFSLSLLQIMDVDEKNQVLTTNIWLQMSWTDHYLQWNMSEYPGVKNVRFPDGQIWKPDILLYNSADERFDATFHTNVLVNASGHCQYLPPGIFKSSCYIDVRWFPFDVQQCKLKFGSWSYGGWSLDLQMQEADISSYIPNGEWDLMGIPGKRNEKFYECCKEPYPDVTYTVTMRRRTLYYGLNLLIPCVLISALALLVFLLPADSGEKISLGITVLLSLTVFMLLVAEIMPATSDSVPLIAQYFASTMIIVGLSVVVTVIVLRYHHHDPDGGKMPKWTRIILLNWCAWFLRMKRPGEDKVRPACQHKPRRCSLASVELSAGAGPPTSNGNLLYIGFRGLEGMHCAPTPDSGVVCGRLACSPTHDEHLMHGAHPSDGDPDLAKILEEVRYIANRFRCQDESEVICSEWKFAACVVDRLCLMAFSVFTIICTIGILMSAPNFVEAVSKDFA

VMAT2 [7] = target: T2, VMAT2; test: [3H]Dihydrotetrabenazine ([3H]DTBZ) binding assay, synaptic vesicles; conditions: inhibition of [3H]DTBZ binding Ki, text b58
[8] = Table 1, inhibition of 10 μM S(−)-nicotine, NI: no inhibition, read-out: Inhibition of Nicotine-Evoked [3H]DA Overflow (IC50) α6β2*
[9] = inhibition of nicotine-evoked [3H]DA overflow IC50
[10] = Table 1, read-out: [3H]DA Uptake (Ki)
[11] = Table 1, read-out: [3H]5-HT Uptake (Ki) SERT
[12] = Table 1, rat striatal membranes, read-out: [3H]Nicotine Binding (Ki) α4β2*
[13] = Table 4, earlier studies, read-out: [3H]Nicotine Binding (Ki) α4β2*
[14] = Table 3, earlier study, read-out: Ki [3H]-Dopamine Uptake Assay
[15] = Table 3, earlier study, read-out: Ki [3H]-Nicotine Binding Assay

Chain of α6β2* nicotinic receptor (P43143 31-493): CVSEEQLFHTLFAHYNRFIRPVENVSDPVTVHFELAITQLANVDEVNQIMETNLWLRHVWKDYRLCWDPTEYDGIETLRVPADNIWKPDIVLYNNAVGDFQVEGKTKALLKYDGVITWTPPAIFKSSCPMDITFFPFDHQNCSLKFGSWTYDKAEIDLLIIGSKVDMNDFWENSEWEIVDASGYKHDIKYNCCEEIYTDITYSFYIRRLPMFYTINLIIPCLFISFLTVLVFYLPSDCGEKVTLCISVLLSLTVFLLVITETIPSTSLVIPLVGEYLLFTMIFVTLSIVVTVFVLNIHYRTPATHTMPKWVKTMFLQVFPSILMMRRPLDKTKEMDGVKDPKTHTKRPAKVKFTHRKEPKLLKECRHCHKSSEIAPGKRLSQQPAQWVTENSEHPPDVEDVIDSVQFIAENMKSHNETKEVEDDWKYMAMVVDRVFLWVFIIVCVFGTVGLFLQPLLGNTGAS
Chain of α6β2* nicotinic receptor (P12390 25-500): as the sequence (P12390 25-500) above

CN1[C@H](/C=C/c2ccccc2)CCC[C@H]1/C=C/c1ccccc1 [Compound 15, N-methyl-2S,6S-trans-di-trans-styrylpiperidine]
selectivity as inhibitor of α6β2* (and α3β4*) subtypes of nAChR compared to inhibition of SERT function (α6β2* nicotinic receptor): 2.2 fold | selectivity for the α6β2* subtype of nAChR relative to interaction with the MTBZ site on VMAT2 (α6β2* nicotinic receptor): 9.5 fold | selectivity for α6β2* (and α3β4*) subtypes of nAChR compared to α4β2* or α7* subtypes (α6β2* nicotinic receptor): > 24 fold | IC50 (α6β2* nicotinic receptor; [8]): 1000 nM | IC50 (α6β2* nicotinic receptor; Table 4, earlier studies, inhibition of 10 μM S(−)-nicotine, read-out: Inhibition of Nicotine-Evoked [3H]DA Overflow (IC50) α6β2*): 540 nM | IC50 (α6β2* nicotinic receptor; [9]): 100 to 1000 nM | IC50 (α3β4* nicotinic receptor; Table 1): 30 nM | Ki [1, 10]: 260 nM | IC50 (VMAT2 [2]): 5150 nM | Ki [3, 11]: 380 nM | IC50 [3]: 1190 nM | more potent inhibiting the function of SERT than Compound 14 ([3]; earlier data): 19 fold | Ki ([3]; read-out: inhibition of serotonin uptake Ki): 10 to 380 nM | Ki (α4β2* nicotinic receptor [4]; [12]): 11900 nM | loss of affinity for the nicotinic receptor compared to lobeline (α4β2* nicotinic receptor [4]; Table 1 data, [3H]nicotine binding): 1000 fold | Ki (α4β2* nicotinic receptor [4]; [13]): 13000 nM | IC50 ([5]; Rattus norvegicus): > 100000 nM

CN1[C@H](/C=C/c2ccccc2)CCC[C@@H]1/C=C/c1ccccc1 [Compound 14, N-methyl-2,6-cis-di-trans-styrylpiperidine]
selectivity as inhibitor of α6β2* (and α3β4*) subtypes of nAChR compared to inhibition of SERT function (α6β2* nicotinic receptor): 770 fold | selectivity for the α6β2* subtype of nAChR relative to interaction with the MTBZ site on VMAT2 (α6β2* nicotinic receptor): 43 fold | selectivity for α6β2* (and α3β4*) subtypes of nAChR compared to α4β2* or α7* subtypes (α6β2* nicotinic receptor): > 370 fold | IC50 (α6β2* nicotinic receptor; Inhibition of Nicotine-Evoked [3H]DA Overflow (IC50) α6β2*): 30 nM | IC50 (α6β2* nicotinic receptor; [9]): 0.3 nM | more potent at inhibiting nicotine-evoked [3H]DA and [3H]NE release compared to Compound 15 (α6β2* nicotinic receptor; rat striatal and hippocampal slices, earlier data): 18 fold | IC50 (α3β4* nicotinic receptor; Table 1): 10 nM | IC50 (α3β4* nicotinic receptor; Table 4, earlier studies): 21 nM | melting point: 149 to 150 °C | Ki [1, 10]: 580 nM | Ki [1, 14]: 800 nM | IC50 (VMAT2 [2]): 1290 nM | Ki [3, 11]: 8940 nM | IC50 [3]: 23200 nM | IC50 (α4β2* nicotinic receptor [6]): > 10000 nM | Ki (α4β2* nicotinic receptor [4]; [12]): > 100000 nM | Ki (α4β2* nicotinic receptor [4]; [15]): > 100000 nM | Ki (α4β2* nicotinic receptor [4]; [13]): 11000 nM | IC50 ([5]; Rattus norvegicus): 430 to 1250 nM | IC50 ([5]; superfused rat striatal slices): 700 nM

CN1[C@@H](CC(=O)c2ccccc2)CCC[C@H]1/C=C/c1ccccc1 [Compound 5, N-methyl-2R-phenacyl-6S-trans-styrylpiperidine]
Ki [1, 10]: 1740 nM | inhibition of DAT, potency compared with lobeline ([1]; Table 1 data): 17 fold | Ki [1, 14]: 3000 nM | inhibition of DAT, potency compared with lobeline ([1]; earlier study (Table 3)): 10 fold | Ki [3, 11]: 1860 nM | IC50 (α4β2* nicotinic receptor [6]): 300 nM | Ki (α4β2* nicotinic receptor [4]; [12]): 440 nM | Ki (α4β2* nicotinic receptor [4]; [15]): 130 nM | Ki (α7* nicotinic receptor): 34200 nM

COc1ccccc1CC[C@H]1CCC[C@@H](CCc2ccccc2OC)N1C [Compound 37, N-methyl-2,6-cis-di-(o-methoxyphenethyl)piperidine]
Ki (VMAT2 [7]): 430 to 680 nM | Ki (α4β2* nicotinic receptor [4]; [12]): > 100000 nM | Ki (α7* nicotinic receptor): 26000 nM

Cc1ccc(S(=O)(=O)O[C@@H](C[C@H]2CCC[C@@H](CC(=O)c3ccccc3)N2C)c2ccccc2)cc1 [Compound 2, 2S,6R,8S-2-[6-(β-Para-toluenesulfonyloxyphenethyl)-1-methyl-2-piperidyl]-acetophenone]
IC50 (α6β2* nicotinic receptor; [8]): 1000 nM | Ki [1, 10]: 29100 nM | Ki [1, 14]: 39000 nM | Ki [3, 11]: 1670 nM | IC50 (α4β2* nicotinic receptor [6]): 2 nM | Ki (α4β2* nicotinic receptor [4]; [12]): 11 nM | Ki (α4β2* nicotinic receptor [4]; [15]): 4.1 nM | Ki (α7* nicotinic receptor): 10800 nM

COc1cccc(CC[C@H]2CCC[C@@H](CCc3cccc(OC)c3)N2C)c1 [Compound 39, N-methyl-2,6-cis-di-(m-methoxyphenethyl)piperidine]
Ki (VMAT2 [7]): 430 to 680 nM | Ki (α4β2* nicotinic receptor [4]; [12]): > 100000 nM | Ki (α7* nicotinic receptor): 25500 nM
